As usually defined, the mass density is mass per unit of volume. As a reminder, the viscosity is the internal friction of a fluid under shear.

± gives the expanded uncertainty stated by the source.

For this series the following is noted: 101 kPa, Liquid.

For `NCCN` [ethane-1,2-diamine], the mass density runs as follows: (298.15 K) 894.5 ± 2.8 kg/m3; (303.15 K) 890.8 ± 2.8 kg/m3; (308.15 K) 885.6 ± 2.9 kg/m3. The viscosity came out at 1.276 ± 0.033 mPa·s (298.15 K), 1.211 ± 0.032 mPa·s (303.15 K) and 1.107 ± 0.029 mPa·s (308.15 K).
Take `OCCO` [1,2-ethanediol]: the viscosity reads like this: (298.15 K) 16.8 ± 0.34 mPa·s; (303.15 K) 13.4 ± 0.27 mPa·s; (308.15 K) 11.33 ± 0.24 mPa·s. Also, where the note is “303.15 K”, the mass density was found to be 1105.8 ± 3.7 kg/m3.

Source of the values: the NIST ThermoML archive (doi:10.1021/je100290a).
